Data reported in patent US8178699B2, “Modulators of CCR9 receptor and methods of use thereof” (Pfizer Inc., priority 2008, dated 2012).
pIC50: −log10 of the molar value. Counter-ions that a name gives are not always drawn.

Target: T1, human CCR9 receptor (Homo sapiens, UniProt P51686)
T1 construct: expressed in transfected cells
T1 sequence (P51686 1-369): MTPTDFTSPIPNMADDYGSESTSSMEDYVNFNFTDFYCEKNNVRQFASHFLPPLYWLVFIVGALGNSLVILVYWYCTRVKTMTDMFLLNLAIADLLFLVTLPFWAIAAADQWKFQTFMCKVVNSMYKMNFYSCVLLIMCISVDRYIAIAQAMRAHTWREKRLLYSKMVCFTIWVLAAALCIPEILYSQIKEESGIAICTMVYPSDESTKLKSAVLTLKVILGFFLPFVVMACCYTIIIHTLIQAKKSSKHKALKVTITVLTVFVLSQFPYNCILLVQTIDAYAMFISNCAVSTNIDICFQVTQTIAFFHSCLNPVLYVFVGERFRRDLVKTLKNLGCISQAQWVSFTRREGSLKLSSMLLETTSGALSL
Assay: CCR9 FLIPR/FlexStation Assay (inhibition of TECK induced calcium mobilization)
Format: cell-based
Details: CCR9 antagonist activity; TECK induced calcium mobilization in CCR9-Flp-CHO cells stably over expressing human CCR9; rhTECK at EC70; read-out: Binding IC50
Excerpt: Exemplary methods are described in US Publication Nos. US2004/0180892 and US2005/0049286, which are incorporated herein by reference. An exemplary assay for determining CCR9 antagonist activity of the compounds provided herein is CCR9 FLIPR/FlexStation Assay. In certain embodiments, the following protocol is used for the assay:
CCR9 FLIPR/FlexStation Assay Protocol
Calcium assay in FLIPR/FlexStation determines inhibitors of TECK induced calcium mobilization in CCR9-Flp-CHO cells that stably over express human CCR9 receptor. CCR9-Flp-CHO cells are seeded at 25,000 cells/well in a clear bottom, black wall 96-well plate (Greiner #655090) one day prior to assay. Cells are grown in a tissue culture incubator at 37° C. with 5% CO2 for 18 to 24 hours.
Wash buffer and dye loading buffer are prepared fresh each time the assay is performed. Wash buffer is prepared according to the following protocol: 20 ml 10×HBSS (Invitrogen Gibco #14065-056), 4 ml 1M HEPES (Sigma H3784), 174 ml sterile deionized water; then add 140 mg probenecid (Sigma P8761) dissolved in 2 ml 1M NaOH (Fisher S318) to solution and pH to 7.4. This wash buffer contains 1×HBSS, 20 mM HEPES and 2.5 mM probenecid. For one 96-well plate, dye loading buffer is prepared as following: 11 ml wash buffer, 44 μl Fluo-4/pluoronic acid mix (prepared from 22 μL aliquot of 2 mM Fluo-4 (Molecular Probes F14202, 1 mg/tube)+22 μl 20% pluronic F-127 (Molecular Probes P3000MP).
Cells are loaded with dye according to the protocol below:
1. Prepare wash buffer with 1×HBSS/HEPES at room temperature
2. Prepare loading buffer (keep in dark)
3. Aspirate culture media and wash with 100 μl wash buffer per well×1
4. Add 100 μl dye loading buffer to each well
5. Incubate at 37° C. for 30 minutes
6. Aspirate loading buffer
7. Wash with 100 μl wash buffer per well×3
8. Add 100 μl wash buffer per well
9. Incubate at 37° C. for 30 minutes
10. Assay plate with FLIPR or FlexStation
10 mM stock compounds in DMSO are prepared and diluted in DMSO to 1 mM. Compounds are diluted in wash buffer to make 8 point series dilutions containing same final concentration of DMSO (1%). Compounds are tested in duplicate wells for each point. Ligand rhTECK (R&D Systems 334-TK) was diluted to 6× of its EC70 with wash buffer. Appropriate amount of 6× ligand is added to each well. Data is analyzed using XLfit3 software to calculate IC50 value of antagonist activity for each compound.
CCR9 antagonist activity of exemplary compounds was determined using CCR9 FLIPR/FlexStation Assay as described in Section 4.4 and is provided in Table 1 below. The IC50 for the compounds are represented as follows: A≦100 nM; B>100-500 nM; C>500 nM.

| pIC50 | SMILES |
| --- | --- |
| < 6.30 | Cc1cc(S(=O)(=O)Nc2ccsc2C(=O)O)ccc1N1CCCC1 [Example 32, 3-(3-methyl-4-(pyrrolidin-1-yl)phenylsulfonamido)thiophene-2-carboxylic acid, disodium salt] |
| < 6.30 | O=C(O)c1sccc1NS(=O)(=O)c1ccc2c(c1)CCC2 [Example 33, 3-(2,3-dihydro-1H-indene-5-sulfonamido)thiophene-2-carboxylic acid, disodium salt] |
| 6.30 to 7.00 | O=C(O)c1sccc1NS(=O)(=O)c1ccc(C2CCCCC2)cc1 [Example 34, 3-(4-cyclohexylphenylsulfonamido)thiophene-2-carboxylic acid, disodium salt] |
| < 6.30 | O=C(O)c1sccc1NS(=O)(=O)c1ccc(F)cc1C1CCCC1 [Example 35, 3-(2-cyclopentyl-4-fluorophenylsulfonamido)thiophene-2-carboxylic acid, disodium salt] |
| ≥ 7.00 | O=C(O)c1sccc1NS(=O)(=O)c1ccc(C2CCCC2)cc1F [Example 36, 3-(4-cyclopentyl-2-fluorophenylsulfonamido)thiophene-2-carboxylic acid, disodium salt] |
| 6.30 to 7.00 | CC(C)c1ccc(S(=O)(=O)Nc2ccsc2C(=O)O)cc1 [Example 37, 3-[4-(iso-propylphenyl)sulfonamido]thiophene-2-carboxylic acid, disodium salt] |
| ≥ 7.00 | CCCCc1ccc(S(=O)(=O)Nc2ccsc2C(=O)O)cc1 [Example 38, 3-[4-(n-butylphenyl)sulfonamide]thiophene-2-carboxylic acid, disodium salt] |
| < 6.30 | CCc1ccccc1-c1cccc(S(=O)(=O)Nc2ccsc2C(=O)O)c1 [Example 39, 3-(2′-ethylbiphenyl-3-ylsulfonamido)thiophene-2-carboxylic acid, disodium salt] |
| < 6.30 | O=C(O)c1sccc1NS(=O)(=O)c1cccc(-c2ccccc2)c1 [Example 40, 3-(biphenyl-3-ylsulfonamido)thiophene-2-carboxylic acid, disodium salt] |
| < 6.30 | Cc1cccc(C)c1-c1cccc(S(=O)(=O)Nc2ccsc2C(=O)O)c1 [Example 41, 3-(2′,6′-dimethylbiphenyl-3-ylsulfonamido)thiophene-2-carboxylic acid, disodium salt] |
| < 6.30 | Cc1cc(C)cc(-c2cccc(S(=O)(=O)Nc3ccsc3C(=O)O)c2)c1 [Example 42, 3-(3′,5′-dimethylbiphenyl-3-ylsulfonamido)thiophene-2-carboxylic acid, disodium salt] |
| < 6.30 | CC(C)c1ccccc1-c1cccc(S(=O)(=O)Nc2ccsc2C(=O)O)c1 [Example 43, 3-(2′-isopropylbiphenyl-3-ylsulfonamido)thiophene-2-carboxylic acid, disodium salt] |
| < 6.30 | CCCOc1ccccc1-c1cccc(S(=O)(=O)Nc2ccsc2C(=O)O)c1 [Example 44, 3-(2′-propoxybiphenyl-3-ylsulfonamido)thiophene-2-carboxylic acid, disodium salt] |
| < 6.30 | CC(C)(C)c1ccc(S(=O)(=O)Nc2ccsc2C(=O)O)c(-c2ccncc2Cl)c1 [Example 45, 3-[4-tert-Butyl-2-(3-chloropyridin-4-yl)phenyl-sulfonamido]thiophene-2-carboxylic acid] |
| < 6.30 | CC(C)(C)c1ccc(S(=O)(=O)Nc2ccsc2C(=O)O)c(-c2ccccc2)c1 [Example 46, 3-(5-tert-butylbiphenyl-2-ylsulfonamido)thiophene-2-carboxylic acid, disodium salt] |
| 6.30 to 7.00 | CC(C)(C)c1ccc(S(=O)(=O)Nc2ccsc2C(=O)O)c(N2CCCCC2)c1 [Example 47, 3-[4-tert-Butyl-2-(piperidin-1-yl)phenylsulfonamido]thiophene-2-carboxylic acid] |

| pIC50 | SMILES |
| --- | --- |
| ≥ 7.00 | CCc1cc(C(C)(C)C)ccc1S(=O)(=O)Nc1ccsc1C(=O)O [Example 48, 3-(4-tert-butyl-2-ethylphenylsulfonamido)thiophene-2-carboxylic acid, disodium salt] |
| < 6.30 | CC1(C)CCC(C)(C)c2cc(S(=O)(=O)Nc3ccsc3C(=O)O)ccc21 [Example 49, 3-(5,5,8,8-tetramethyl-5,6,7,8-tetrahydronaphthalene-2-sulfonamido)thiophene-2-carboxylic acid, disodium salt] |
| ≥ 7.00 | O=C(O)c1sccc1NS(=O)(=O)c1ccc(OC(F)(F)F)cc1Cl [Example 50, 3-[2-chloro-4-(trifluoromethoxy)phenylsulfonamido]thiophene-2-carboxylic acid, disodium salt] |
| < 6.30 | O=C(O)c1sccc1NS(=O)(=O)c1c(Cl)cc(C(F)(F)F)cc1Cl [Example 51, 3-[2,6-dichloro-4-(trifluoromethyl)phenylsulfonamido]thiophene-2-carboxylic acid, disodium salt] |
| ≥ 7.00 | CC(C)(C)c1ccc(S(=O)(=O)Nc2ccsc2C(=O)O)c(/C=C/C2CC2)c1 [Example 52, 3-[4-tert-butyl-2-(2-cyclopropylvinyl)phenylsulfonamido]thiophene-2-carboxylic acid, disodium salt] |
| < 6.30 | CC(C)(C)c1ccc(S(=O)(=O)Nc2ccsc2C(=O)O)c(-c2cccc(Cl)c2)c1 [Example 53, 3-(5-tert-butyl-3′-chlorobiphenyl-2-ylsulfonamido)thiophene-2-carboxylic acid, disodium salt] |
| 6.30 to 7.00 | CC(C)(C)c1ccc(S(=O)(=O)Nc2ccsc2C(=O)O)c(-c2cccc(F)c2)c1 [Example 54, 3-(5-tert-butyl-3′-fluorobiphenyl-2-ylsulfonamido)thiophene-2-carboxylic acid, disodium salt] |
| 6.30 to 7.00 | COC/C=C/c1cc(C(C)(C)C)ccc1S(=O)(=O)Nc1ccsc1C(=O)O [Example 55, 3-[4-tert-butyl-2-(3-methoxyprop-1-enyl)phenylsulfonamido]thiophene-2-carboxylic acid, disodium salt] |
| ≥ 7.00 | CCCc1cc(C(C)(C)C)ccc1S(=O)(=O)Nc1ccsc1C(=O)O [Example 56, 3-(4-tert-butyl-2-propylphenylsulfonamido)thiophene-2-carboxylic acid, disodium salt] |
| ≥ 7.00 | CC(C)(C)c1ccc(S(=O)(=O)Nc2ccsc2C(=O)O)c(CCC2CC2)c1 [Example 57, 3-[4-tert-Butyl-2-(2-cyclopropylethyl)phenylsulfonamido]thiophene-2-carboxylic acid, disodium salt] |
| 6.30 to 7.00 | CCCCCc1cc(C(C)(C)C)ccc1S(=O)(=O)Nc1ccsc1C(=O)O [Example 58, 3-(4-tert-butyl-2-pentylphenylsulfonamido)thiophene-2-carboxylic acid, disodium salt] |
| 6.30 to 7.00 | COCCCc1cc(C(C)(C)C)ccc1S(=O)(=O)Nc1ccsc1C(=O)O [Example 59, 3-[4-tert-butyl-2-(3-methoxypropyl)phenylsulfonamido]thiophene-2-carboxylic acid, disodium salt] |
| 6.30 to 7.00 | CC(C)(C)c1ccc(S(=O)(=O)Nc2ccsc2C(=O)O)c(-c2ccoc2)c1 [Example 60, 3-[4-tert-butyl-2-(furan-3-yl)-phenylsulfonamido]thiophene-2-carboxylic acid, disodium salt] |
| ≥ 7.00 | C=Cc1cc(C(C)(C)C)ccc1S(=O)(=O)Nc1ccsc1C(=O)O [Example 61, 3-(4-tert-butyl-2-vinylphenylsulfonamido)thiophene-2-carboxylic acid, disodium salt] |
| < 6.30 | Cc1cc(C(C)(C)C)cc(C)c1S(=O)(=O)Nc1ccsc1C(=O)O [Example 62, 3-(4-tert-butyl-2,6-dimethylphenylsulfonamido)thiophene-2-carboxylic acid, disodium salt] |
